From patent US20260297542A1, “HERBICIDE RESISTANT PLANTS” (SYNGENTA CROP PROTECTION AG, priority 2023, published 2026)

The compounds below were run against T1, His-TEV-AtPP01 ΔcTP L479M (SEQ ID NO: 371) (Arabidopsis thaliana, UniProt P55826, L479M) (assay: PPO fluorescence IC50 assay, partially purified enzyme). Conditions: not given.
T1 construct: with cTPs removed; made in house; host or cells: E. coli BL21 (DE3), His GraviTrap, partially purified
T1 sequence (P55826 with tags, fused parts or gaps L479M): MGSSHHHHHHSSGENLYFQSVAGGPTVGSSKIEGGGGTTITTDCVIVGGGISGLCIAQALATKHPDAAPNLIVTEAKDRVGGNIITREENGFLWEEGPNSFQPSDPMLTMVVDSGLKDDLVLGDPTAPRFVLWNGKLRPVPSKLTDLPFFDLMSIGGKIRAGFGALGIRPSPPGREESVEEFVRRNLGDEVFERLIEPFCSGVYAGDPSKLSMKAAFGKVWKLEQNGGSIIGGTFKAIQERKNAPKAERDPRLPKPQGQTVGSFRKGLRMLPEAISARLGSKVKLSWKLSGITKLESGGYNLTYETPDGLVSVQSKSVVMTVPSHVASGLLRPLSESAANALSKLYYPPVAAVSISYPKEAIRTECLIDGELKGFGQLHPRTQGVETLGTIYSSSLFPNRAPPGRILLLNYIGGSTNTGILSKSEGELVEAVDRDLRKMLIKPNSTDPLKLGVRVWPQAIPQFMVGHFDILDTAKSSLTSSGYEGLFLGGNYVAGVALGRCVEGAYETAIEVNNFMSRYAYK
Type: biochemical
Excerpt: A pET24 plasmid containing a DNA sequence encoding variants of AtPPO1 derived from Arabidopsis thaliana with cTPs removed and both a 6×His tag and TEV protease cleavage tag added at the N-terminus, codon-optimised for expression in E. coli, and under control of a T7 promoter, was synthesised by Twist Bioscience. The following variants were synthesised: WT AtPPO1 (SEQ ID NO: 370), AtPPO1 L479M (SEQ ID NO: 371), AtPPO1 L479N (SEQ ID NO: 372), AtPPO1 S305L Y426V (SEQ ID NO: 374) and AtPPO1 S305L Y426V L479M (SEQ ID NO: 373). This plasmid was expressed in E. coli BL21 (DE3) with 50 μg/mL kanamycin selection. 10 mL of overnight cultures grown at 37° C. were used to inoculate 1 L AIM (AIM-Terrific Broth Base including Trace elements, Formedium) in 2 L shake flasks. Cultures were grown at 37° C., 200 rpm for 3 hours and then overnight at 26° C. Cells were harvested centrifugation. 5-15 g of cell pellet was lysed in and resuspended in ratio of 1:1.5 in lysis buffer (20 mM Tris pH8, 500 mM sodium chloride, 10% glycerol, 1× complete Protease EDTA-free Inhibitor Tablet (Roche), 10 mM imidazole). The resuspension was sonicated at 75% using 10 cycles of 30 seconds, 40 seconds off. After sonication Triton X-100 was added to the lysates at a final concentration of 0.5%. The lysates were centrifuged at 20,000 rpm for 25 min at 4° C. Cleared lysates were loaded on His GraviTrap (Cytiva) columns, washed with 20 mL of lysis buffer and eluted in elution buffer (20 mM Tris pH8, 500 mM sodium chloride, 10% glycerol, 200 mM imidazole, 0.03% (v/v) Triton X-100). The eluate was desalted on a PD10 column and 2.5-3.2 mL was collected. Protein concentration was measured and calculated using the absorbance at 280 nm. Extracts were diluted 1 in 4 and 10 uL was analysed by SDS PAGE.
Partially purified Protoporphyrinogen Oxidase enzymes were assayed for activity using fluorescence adapted from the method of Shepherd & Dailey (Anal Biochem. 2005 344(1) 115-121). The assay was performed in black 384 well plates with a clear bottom and the total volume of the reaction mixture was 91 ul. The final assay mixture contained 100 mM K2HPO4 pH7.2, 1 mM Na2EDTA, 5 mM DTT, 20% glycerol (v/v), 0.05% Tween 20 (v/v), 1.1% DMSO (v/v), 1 uM protoporphyrinogen IX and 1.5 nM enzyme. Compounds were dissolved in DMSO at 1 mM and a 4-fold serial dilution carried out to give 8 rates. 1 ul was added to the assay mixture. This gave final compound concentrations of 11, 2.7, 0.69, 0.17, 0.04, 0.01, 0.002, 0.0007 uM. Enzyme and inhibitor were preincubated for 5 minutes prior to starting the reaction with the addition of the substrate. […] IC50s were calculated using GraphPad Prism 7.05 nonlinear regression (Table 6). Each compound was tested in duplicate.
C#CCOc1cc(-n2nc3n(c2=O)CCCC3)c(Cl)cc1Cl [Azafenadin] gave an IC50 of 0.7 nM. C=CCOC(=O)C(C)(C)OC(=O)c1cc(-n2c(=O)cc(C(F)(F)F)n(C)c2=O)ccc1Cl [Butafenacil, butafenacil] was tested, and the IC50 was 0.7 nM. C#CCN1C(=O)COc2cc(F)c(N3C(=O)C4=C(CCCC4)C3=O)cc21 [Flumioxazin, flumioxazin] was tested, and the IC50 was 1 nM. In the case of CS(=O)(=O)NC(=O)c1cc(Oc2ccc(C(F)(F)F)cc2Cl)ccc1[N+](=O)[O-] [Fomesafen, fomesafen], the IC50 is reported as 1.2 nM. CCOC(=O)COc1ncccc1Oc1cc(-n2c(=O)cc(C(F)(F)F)n(C)c2=O)c(F)cc1Cl [Herbicide A, epyrifenacil] gave an IC50 of 0.8 nM. C#CCN1C(=O)C(F)(F)Oc2cc(F)c(-n3c(=O)n(C)c(=S)n(C)c3=O)cc21 [Herbicide B, trifludimoxazin] was tested, and the IC50 was 0.8 nM. For CCOC(=O)C1(C)CC(c2cc(-n3c(=O)cc(C(F)(F)F)n(C)c3=O)c(F)cc2Cl)=NO1 (stereo not shown) [Herbicide C, 3-(2-chloro-4-fluoro-5-(3-methyl-2,6-dioxo-4-trifluoromethyl-3,6-dihydropyrimidin-1(2H)-yl)phenyl)-5-methyl-4,5-dihydroisoxazole-5-carboxylic acid ethyl ester], the IC50 was 0.8 nM. With CCOC(=O)[C@]1(C)CC(c2cc(-n3c(=O)n(C)c(=S)n(C)c3=O)c(F)cc2Cl)=NO1 [Herbicide D, ethyl (5S)-3-[2-chloro-5-(3,5-dimethyl-2,6-dioxo-4-thioxo-1,3,5-triazinan-1-yl)-4-fluoro-phenyl]-5-methyl-4H-isoxazole-5-carboxylate] the IC50 was 0.6 nM. For CC(C)N(C)S(=O)(=O)NC(=O)c1cc(-n2c(=O)cc(C(F)(F)F)n(C)c2=O)c(F)cc1Cl [Herbicide E, saflufenacil], the IC50 was 2.4 nM. Compound CC(C)Oc1cc(-n2nc(C(C)(C)C)oc2=O)c(Cl)cc1Cl [Oxadiazaon] has an IC50 of 11.2 nM. C#CCN(C)c1c(C#N)cnn1-c1nn2c(c1Cl)CCCC2 [Pyraclonil] gave an IC50 of 2.3 nM. In the case of CCOC(=O)COc1cc(-c2nn(C)c(OC(F)F)c2Cl)c(F)cc1Cl [Pyraflufen-ethyl, pyraflufen-ethyl], the IC50 is reported as 0.7 nM.

Same assay, conditions: role: inhibitor; 1 uM protoporphyrinogen IX; <1.0 is below detection limit of assay
COC(=O)C(C)ON=Cc1cc(-n2c(=O)cc(C(F)(F)F)n(C)c2=O)c(F)cc1Cl (stereo not shown) [Flufenoximacil, flufenoximacil] was tested, and the IC50 was 0.7 nM.
